# Measurements from patent US11780893B2, “Kv1.3 blockers” (Zealand Pharma A/S, priority 2019, dated 2023).
# Bridge positions count the residues as written; N and C are the ends. Square brackets hold non-standard residues; d marks the D form. Peptide text beside a SMILES is read from it. Nle = CCCC[C@H](N)C(=O)O
# Experiments:
# Kv1.6 = target: T1, Kv1.6 (Homo sapiens, UniProt P17658); experiment: cell-based; settings: CHO cells, whole-cell patch clamp; read-out: Potency IC50 (nM) Kv1.6
# T1 construct: expressed in transfected cells; host or cells: Chinese Hamster Ovary (CHO)
# Kv1.2 = target: T2, Kv1.2 (Homo sapiens, UniProt P16389); experiment: cell-based; settings: CHO cells, whole-cell patch clamp; read-out: Potency IC50 (nM) Kv1.2
# T2 construct: expressed in transfected cells; host or cells: Chinese Hamster Ovary (CHO)
# [1] = target: T3, human Kv1.3 voltage-gated K+ channel (Homo sapiens, UniProt P22001); experiment: cell-based; settings: inhibition of thallium flux, CHO-DUKX cells with human Kv1.3; read-out: IC50
# T3 construct: host or cells: CHO-DUKX
# Rat whole blood = Rat whole blood (Rattus norvegicus, UniProt P15384)
# Kv1.3 = target: T4, Kv1.3 (Homo sapiens, UniProt P22001); experiment: cell-based; settings: CHO cells, whole-cell patch clamp; read-out: Potency IC50 (nM) Kv1.3
# T4 construct: expressed in transfected cells; host or cells: Chinese Hamster Ovary (CHO)
# T4 sequence (P22001 whole entry): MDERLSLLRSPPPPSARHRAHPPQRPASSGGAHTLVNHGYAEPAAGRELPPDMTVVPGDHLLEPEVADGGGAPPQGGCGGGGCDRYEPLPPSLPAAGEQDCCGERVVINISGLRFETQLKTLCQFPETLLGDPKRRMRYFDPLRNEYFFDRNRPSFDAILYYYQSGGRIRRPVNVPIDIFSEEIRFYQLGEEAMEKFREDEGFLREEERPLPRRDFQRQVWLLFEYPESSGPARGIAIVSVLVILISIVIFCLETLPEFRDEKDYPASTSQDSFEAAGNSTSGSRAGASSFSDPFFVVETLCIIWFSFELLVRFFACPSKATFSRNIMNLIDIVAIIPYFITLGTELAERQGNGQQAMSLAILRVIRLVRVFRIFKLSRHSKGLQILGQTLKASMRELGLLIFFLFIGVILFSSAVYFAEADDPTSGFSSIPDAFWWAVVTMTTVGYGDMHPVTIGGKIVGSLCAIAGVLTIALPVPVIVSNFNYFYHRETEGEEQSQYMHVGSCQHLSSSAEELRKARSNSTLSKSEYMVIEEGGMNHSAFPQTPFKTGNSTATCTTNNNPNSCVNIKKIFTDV
# T3 sequence (P22001 whole entry): as above
# Rat whole blood, sequence (P15384 whole entry): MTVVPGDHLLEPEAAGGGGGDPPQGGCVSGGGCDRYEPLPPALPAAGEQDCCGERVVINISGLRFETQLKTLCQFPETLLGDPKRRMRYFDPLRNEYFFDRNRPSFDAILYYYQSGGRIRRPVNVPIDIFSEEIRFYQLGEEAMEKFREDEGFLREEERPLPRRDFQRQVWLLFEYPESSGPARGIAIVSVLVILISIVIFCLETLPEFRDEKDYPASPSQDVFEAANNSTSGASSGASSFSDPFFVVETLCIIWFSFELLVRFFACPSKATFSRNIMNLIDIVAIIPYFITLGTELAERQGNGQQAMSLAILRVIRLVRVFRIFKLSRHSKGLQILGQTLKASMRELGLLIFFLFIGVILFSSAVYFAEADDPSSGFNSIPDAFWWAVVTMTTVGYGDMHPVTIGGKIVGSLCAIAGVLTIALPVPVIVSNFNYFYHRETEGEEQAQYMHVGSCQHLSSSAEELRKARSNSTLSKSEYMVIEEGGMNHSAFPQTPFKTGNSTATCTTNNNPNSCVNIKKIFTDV
# T2 sequence (P16389 whole entry): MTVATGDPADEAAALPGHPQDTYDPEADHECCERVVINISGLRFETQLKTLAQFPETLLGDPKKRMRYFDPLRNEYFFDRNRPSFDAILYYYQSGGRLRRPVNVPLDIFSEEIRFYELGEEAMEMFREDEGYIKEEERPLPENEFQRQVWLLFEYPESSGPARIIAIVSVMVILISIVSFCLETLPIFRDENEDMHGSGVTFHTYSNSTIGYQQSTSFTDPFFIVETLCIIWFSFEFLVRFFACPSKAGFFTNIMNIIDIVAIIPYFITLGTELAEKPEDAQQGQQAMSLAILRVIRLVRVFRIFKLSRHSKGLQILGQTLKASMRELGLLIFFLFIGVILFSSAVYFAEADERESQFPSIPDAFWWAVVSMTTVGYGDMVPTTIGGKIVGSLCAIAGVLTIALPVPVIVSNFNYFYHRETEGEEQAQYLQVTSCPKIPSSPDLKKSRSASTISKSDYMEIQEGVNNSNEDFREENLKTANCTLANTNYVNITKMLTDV
# T1 sequence (P17658 whole entry): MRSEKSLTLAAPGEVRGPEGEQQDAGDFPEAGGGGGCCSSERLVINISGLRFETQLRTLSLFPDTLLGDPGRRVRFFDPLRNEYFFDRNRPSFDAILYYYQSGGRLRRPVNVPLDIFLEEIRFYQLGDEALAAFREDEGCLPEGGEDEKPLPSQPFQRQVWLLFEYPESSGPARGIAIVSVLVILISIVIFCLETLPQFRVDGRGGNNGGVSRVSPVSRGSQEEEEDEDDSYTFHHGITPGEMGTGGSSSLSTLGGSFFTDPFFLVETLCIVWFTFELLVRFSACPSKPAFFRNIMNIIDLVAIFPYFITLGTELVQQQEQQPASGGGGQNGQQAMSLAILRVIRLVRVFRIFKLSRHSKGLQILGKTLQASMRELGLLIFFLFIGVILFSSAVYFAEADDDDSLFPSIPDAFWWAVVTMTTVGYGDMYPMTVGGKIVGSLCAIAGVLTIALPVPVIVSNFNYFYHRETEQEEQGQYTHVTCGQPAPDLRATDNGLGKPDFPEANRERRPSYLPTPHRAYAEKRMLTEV
SMILES,IC50 (Kv1.6) [nM],IC50 (Kv1.2) [nM],IC50 [1] [nM],IC50 (Rat whole blood) [nM],IC50 (Kv1.3) [nM]
"CC[C@H](C)[C@@H]1NC(=O)[C@@H](NC(=O)[C@H](CO)NC(=O)[C@@H](N)CCCNC(=N)N)CSSC[C@@H](C(=O)O)NC(=O)[C@H]([C@@H](C)O)NC(=O)CNC(=O)[C@@H]2CSSC[C@@H]3NC(=O)[C@H](CCC(N)=O)NC(=O)[C@H](Cc4ccccc4)NC(=O)[C@H](C)NC(=O)[C@H]([C@@H](C)O)NC(=O)[C@H](CSSC[C@H](NC(=O)[C@H](Cc4ccccc4)NC(=O)[C@H](CO)NC(=O)[C@H](CC(C)C)NC(=O)[C@H](CCCNC(=N)N)NC(=O)[C@H](Cc4ccc(O)cc4)NC(=O)[C@H](CCCCN)NC(=O)[C@H](CCSC)NC(=O)[C@H](CO)NC(=O)[C@H](Cc4cnc[nH]4)NC(=O)[C@H](CCCCN)NC3=O)C(=O)N[C@@H](CCCNC(=N)N)C(=O)N[C@@H](CCCCN)C(=O)N[C@@H]([C@@H](C)O)C(=O)N2)NC(=O)[C@H](CCCNC(=N)N)NC(=O)[C@H](CO)NC(=O)[C@H](CCCCN)NC(=O)[C@@H]2CCCN2C(=O)[C@H]([C@@H](C)CC)NC(=O)[C@H]([C@@H](C)O)NC(=O)[C@H](CC(=O)O)NC1=O [ShK, reference compound]",0.19,11,,,
"CCCC[C@@H]1NC(=O)[C@@H]2CSSC[C@H](NC(=O)[C@H](CCCNC(=N)N)NC(=O)[C@H](CCCC)NC(=O)[C@H](CC(=O)O)NC(=O)[C@H](CCCC)NC(=O)[C@@H](N)CO)C(=O)N[C@@H](CO)C(=O)N[C@@H](C)C(=O)N[C@@H](CO)C(=O)N[C@@H](C(C)C)C(=O)N[C@@H](CCC(=O)O)C(=O)N[C@H]3CSSC[C@H](NC(=O)[C@H](CCCCN)NC(=O)[C@H](CCCCN)NC(=O)[C@H](CC(N)=O)NC1=O)C(=O)N[C@@H](CCCCN)C(=O)N[C@H](C(=O)N[C@@H](Cc1ccc(O)cc1)C(=O)N1CCC[C@H]1C(=O)N[C@@H](CCCNC(=N)N)C(N)=O)CSSC[C@H](NC(=O)[C@H](CCCCN)NC(=O)[C@H](CCC(N)=O)NC(=O)[C@H](CCCCN)NC3=O)C(=O)N[C@@H](CC(C)C)C(=O)N[C@@H](CCCCN)C(=O)N[C@@H](C)C(=O)N[C@@H]([C@@H](C)CC)C(=O)NCC(=O)N[C@@H](CO)C(=O)N[C@@H]([C@@H](C)CC)C(=O)N[C@@H](Cc1ccccc1)C(=O)NCC(=O)N[C@@H](CCCCN)C(=O)N2 [Compound 66] (H-S[Nle]D[Nle]RCSASVECKQKCLKAIGSIFGKC[Nle]NKKCKCYPR-NH2; disulfide 6-27, 12-32, 16-34)",,,0.12,≤ 1,0.18
"CC[C@H](C)[C@@H]1NC(=O)[C@H](C)NC(=O)[C@H](CCCCN)NC(=O)[C@H](CC(C)C)NC(=O)[C@@H]2CSSC[C@@H](C(=O)N[C@@H](Cc3ccc(O)cc3)C(=O)N3CCC[C@H]3C(=O)N[C@@H](CCCNC(=N)N)C(N)=O)NC(=O)[C@H](CCCCN)NC(=O)[C@@H]3CSSC[C@H](NC(=O)[C@H](CCC(=O)O)NC(=O)[C@H](C(C)C)NC(=O)[C@H](CO)NC(=O)[C@H](C)NC(=O)[C@H](CO)NC(=O)[C@@H](NC(=O)[C@H](CCCNC(=N)N)NC(=O)[C@H](CCSC)NC(=O)[C@H](CC(=O)O)NC(=O)[C@H](CCSC)NC(=O)[C@@H](N)CC(N)=O)CSSC[C@H](NC(=O)[C@H](CCCCN)NC(=O)CNC(=O)[C@H](Cc4ccccc4)NC(=O)[C@H]([C@@H](C)CC)NC(=O)[C@H](CO)NC(=O)CNC1=O)C(=O)N[C@@H](CCSC)C(=O)N[C@@H](CC(N)=O)C(=O)N[C@@H](CCCCN)C(=O)N[C@@H](CCCCN)C(=O)N3)C(=O)N[C@@H](CCCCN)C(=O)N[C@@H](CC(C)C)C(=O)N[C@@H](CCCCN)C(=O)N2 [Compound 32] (H-NMDMRCSASVECKLKCLKAIGSIFGKCMNKKCKCYPR-NH2; disulfide 6-27, 12-32, 16-34)",,,0.12,≤ 1,0.38
"CCCC[C@@H]1NC(=O)[C@@H]2CSSC[C@H](NC(=O)[C@H](CCCNC(=N)N)NC(=O)[C@H](CCCC)NC(=O)[C@H](CC(=O)O)NC(=O)[C@H](CCCC)NC(=O)[C@@H](N)Cc3c[nH]cn3)C(=O)N[C@@H](CO)C(=O)N[C@@H](C)C(=O)N[C@@H](CO)C(=O)N[C@@H](C(C)C)C(=O)N[C@@H](CCC(=O)O)C(=O)N[C@H]3CSSC[C@H](NC(=O)[C@H](CCCCN)NC(=O)[C@H](CCCCN)NC(=O)[C@H](CC(N)=O)NC1=O)C(=O)N[C@@H](CCCCN)C(=O)N[C@H](C(=O)N[C@@H](Cc1ccc(O)cc1)C(=O)N1CCC[C@H]1C(=O)N[C@@H](CCCNC(=N)N)C(N)=O)CSSC[C@H](NC(=O)[C@H](CCCCN)NC(=O)[C@H](CCC(N)=O)NC(=O)[C@H](CCCCN)NC3=O)C(=O)N[C@@H](CC(C)C)C(=O)N[C@@H](CCCCN)C(=O)N[C@@H](C)C(=O)N[C@@H]([C@@H](C)CC)C(=O)NCC(=O)N[C@@H](CO)C(=O)N[C@@H]([C@@H](C)CC)C(=O)N[C@@H](Cc1ccccc1)C(=O)NCC(=O)N[C@@H](CCCCN)C(=O)N2 [Compound 64] (H-H[Nle]D[Nle]RCSASVECKQKCLKAIGSIFGKC[Nle]NKKCKCYPR-NH2; disulfide 6-27, 12-32, 16-34)",,,0.12,,0.25
"CCCC[C@@H]1NC(=O)[C@@H]2CSSC[C@H](NC(=O)[C@H](CCCNC(=N)N)NC(=O)[C@H](CCCC)NC(=O)[C@H](CC(=O)O)NC(=O)[C@H](CCCC)NC(=O)[C@@H](N)C(C)C)C(=O)N[C@@H](CO)C(=O)N[C@@H](C)C(=O)N[C@@H](CO)C(=O)N[C@@H](C(C)C)C(=O)N[C@@H](CCC(=O)O)C(=O)N[C@H]3CSSC[C@H](NC(=O)[C@H](CCCCN)NC(=O)[C@H](CCCCN)NC(=O)[C@H](CC(N)=O)NC1=O)C(=O)N[C@@H](CCCCN)C(=O)N[C@H](C(=O)N[C@@H](Cc1ccc(O)cc1)C(=O)N1CCC[C@H]1C(=O)N[C@@H](CCCNC(=N)N)C(N)=O)CSSC[C@H](NC(=O)[C@H](CCCCN)NC(=O)[C@H](CCC(N)=O)NC(=O)[C@H](CCCCN)NC3=O)C(=O)N[C@@H](CC(C)C)C(=O)N[C@@H](CCCCN)C(=O)N[C@@H](C)C(=O)N[C@@H]([C@@H](C)CC)C(=O)NCC(=O)N[C@@H](CO)C(=O)N[C@@H]([C@@H](C)CC)C(=O)N[C@@H](Cc1ccccc1)C(=O)NCC(=O)N[C@@H](CCCCN)C(=O)N2 [Compound 67] (H-V[Nle]D[Nle]RCSASVECKQKCLKAIGSIFGKC[Nle]NKKCKCYPR-NH2; disulfide 6-27, 12-32, 16-34)",,,0.12,≤ 1,0.32
"CCCC[C@H](NC(=O)[C@H](CC(=O)O)NC(=O)[C@H](CCCC)NC(=O)[C@@H](N)CO)C(=O)N[C@@H](CCCNC(=N)N)C(=O)N[C@H]1CSSC[C@@H]2NC(=O)[C@H](CCCCN)NC(=O)CNC(=O)[C@H](Cc3ccccc3)NC(=O)[C@H]([C@@H](C)CC)NC(=O)[C@H](CO)NC(=O)CNC(=O)[C@H]([C@@H](C)CC)NC(=O)[C@H](C)NC(=O)[C@H](C)NC(=O)[C@H](CC(C)C)NC(=O)[C@@H]3CSSC[C@@H](C(=O)N[C@@H](Cc4ccc(O)cc4)C(=O)N4CCC[C@H]4C(=O)N[C@@H](CCCNC(=N)N)C(N)=O)NC(=O)[C@H](CCCCN)NC(=O)[C@H](CSSC[C@H](NC(=O)[C@H](CCC(=O)O)NC(=O)[C@H](C(C)C)NC(=O)[C@H](CO)NC(=O)[C@H](C)NC(=O)[C@H](CO)NC1=O)C(=O)N[C@@H](C)C(=O)N[C@@H](CCC(N)=O)C(=O)N[C@@H](CCCCN)C(=O)N3)NC(=O)[C@H](CCCCN)NC(=O)[C@H](CCCCN)NC(=O)[C@H](CC(N)=O)NC(=O)[C@H](CCSC)NC2=O [Compound 80] (H-S[Nle]D[Nle]RCSASVECAQKCLAAIGSIFGKCMNKKCKCYPR-NH2; disulfide 6-27, 12-32, 16-34)",,,0.15,,0.16
"CC[C@H](C)[C@@H]1NC(=O)[C@H](Cc2ccc(O)cc2)NC(=O)[C@H](CCCCN)NC(=O)[C@H](CC(C)C)NC(=O)[C@@H]2CSSC[C@@H](C(=O)N[C@@H](Cc3ccc(O)cc3)C(=O)N3CCC[C@H]3C(=O)N[C@@H](CCCNC(=N)N)C(N)=O)NC(=O)[C@H](CCCCN)NC(=O)[C@@H]3CSSC[C@H](NC(=O)[C@H](CCC(=O)O)NC(=O)[C@H](C(C)C)NC(=O)[C@H](CO)NC(=O)[C@H](C)NC(=O)[C@H](CO)NC(=O)[C@@H](NC(=O)[C@H](CCCNC(=N)N)NC(=O)[C@H](CCSC)NC(=O)[C@H](CC(=O)O)NC(=O)[C@H](CCSC)NC(=O)[C@@H](N)CC(N)=O)CSSC[C@H](NC(=O)[C@H](CCCCN)NC(=O)CNC(=O)[C@H](Cc4ccccc4)NC(=O)[C@H]([C@@H](C)CC)NC(=O)[C@H](CO)NC(=O)CNC1=O)C(=O)N[C@@H](CCSC)C(=O)N[C@@H](CC(N)=O)C(=O)N[C@@H](CCCCN)C(=O)N[C@@H](CCCCN)C(=O)N3)C(=O)N[C@@H](CCCCN)C(=O)N[C@@H](CCC(N)=O)C(=O)N[C@@H](CCCCN)C(=O)N2 [Compound 55] (H-NMDMRCSASVECKQKCLKYIGSIFGKCMNKKCKCYPR-NH2; disulfide 6-27, 12-32, 16-34)",,,0.12,,0.12
